Experiments:
ANKK1 = ANKK1 (Homo sapiens (Human), UniProt Q8NFD2); assay: KINOMEscan scanMAX; type: binding; conditions: 2000 nM; read-out: Percent Control
NLK = NLK (Homo sapiens (Human), UniProt Q9UBE8); assay: KINOMEscan scanMAX; type: binding; conditions: 2000 nM; read-out: Percent Control
LTK = LTK (Homo sapiens (Human), UniProt P29376); assay: KINOMEscan scanMAX; type: binding; conditions: 2000 nM; read-out: Percent Control
PIK3CB = PIK3CB (Homo sapiens (Human), UniProt P42338); assay: KINOMEscan scanMAX; type: binding; conditions: 2000 nM; read-out: Percent Control
[1] = target: JAK1(JH1domain-catalytic) (Homo sapiens (Human), UniProt P23458); assay: KINOMEscan scanMAX; type: binding; conditions: 2000 nM; read-out: Percent Control
TEC = TEC (Homo sapiens (Human), UniProt P42680); assay: KINOMEscan scanMAX; type: binding; conditions: 2000 nM; read-out: Percent Control
GSK3B = GSK3B (Homo sapiens (Human), UniProt P49841); assay: KINOMEscan scanMAX; type: binding; conditions: 2000 nM; read-out: Percent Control
TLK2 = TLK2 (Homo sapiens (Human), UniProt Q86UE8); assay: KINOMEscan scanMAX; type: binding; conditions: 2000 nM; read-out: Percent Control
AURKB = AURKB (Homo sapiens (Human), UniProt Q96GD4); assay: KINOMEscan scanMAX; type: binding; conditions: 2000 nM; read-out: Percent Control
KIT(D816V) = KIT(D816V) (Homo sapiens (Human), UniProt P10721, D816V); assay: KINOMEscan scanMAX; type: binding; conditions: 2000 nM; read-out: Percent Control
TYRO3 = TYRO3 (Homo sapiens (Human), UniProt Q06418); assay: KINOMEscan scanMAX; type: binding; conditions: 2000 nM; read-out: Percent Control
WNK1 = WNK1 (Homo sapiens (Human), UniProt Q9H4A3); assay: KINOMEscan scanMAX; type: binding; conditions: 2000 nM; read-out: Percent Control
PRKCE = PRKCE (Homo sapiens (Human), UniProt Q02156); assay: KINOMEscan scanMAX; type: binding; conditions: 2000 nM; read-out: Percent Control
MEK1 (MAP2K1) = MEK1 (MAP2K1) (Homo sapiens (Human), UniProt Q02750); assay: KINOMEscan scanMAX; type: binding; conditions: 2000 nM; read-out: Percent Control
PLK3 = PLK3 (Homo sapiens (Human), UniProt Q9H4B4); assay: KINOMEscan scanMAX; type: binding; conditions: 2000 nM; read-out: Percent Control
ALK(C1156Y) = ALK(C1156Y) (Homo sapiens (Human), UniProt Q9UM73, C1156Y); assay: KINOMEscan scanMAX; type: binding; conditions: 2000 nM; read-out: Percent Control
EGFR(L858R, T790M) = EGFR(L858R, T790M) (Homo sapiens (Human), UniProt P00533, L858R/T790M); assay: KINOMEscan scanMAX; type: binding; conditions: 2000 nM; read-out: Percent Control
FLT3(K663Q) = FLT3(K663Q) (Homo sapiens (Human), UniProt P36888, K663Q); assay: KINOMEscan scanMAX; type: binding; conditions: 2000 nM; read-out: Percent Control
PIK3CA(I800L) = PIK3CA(I800L) (Homo sapiens (Human), UniProt P42336, I800L); assay: KINOMEscan scanMAX; type: binding; conditions: 2000 nM; read-out: Percent Control
FLT3(D835V) = FLT3(D835V) (Homo sapiens (Human), UniProt P36888, D835V); assay: KINOMEscan scanMAX; type: binding; conditions: 2000 nM; read-out: Percent Control
ACVR2B = ACVR2B (Homo sapiens (Human), UniProt Q13705); assay: KINOMEscan scanMAX; type: binding; conditions: 2000 nM; read-out: Percent Control
PIK3CA(E542K) = PIK3CA(E542K) (Homo sapiens (Human), UniProt P42336, E542K); assay: KINOMEscan scanMAX; type: binding; conditions: 2000 nM; read-out: Percent Control
MAST1 = MAST1 (Homo sapiens (Human), UniProt Q9Y2H9); assay: KINOMEscan scanMAX; type: binding; conditions: 2000 nM; read-out: Percent Control
GRK4 = GRK4 (Homo sapiens (Human), UniProt P32298); assay: KINOMEscan scanMAX; type: binding; conditions: 2000 nM; read-out: Percent Control
TNK2 = TNK2 (Homo sapiens (Human), UniProt Q07912); assay: KINOMEscan scanMAX; type: binding; conditions: 2000 nM; read-out: Percent Control
BLK = BLK (Homo sapiens (Human), UniProt P51451); assay: KINOMEscan scanMAX; type: binding; conditions: 2000 nM; read-out: Percent Control
CAMK4 = CAMK4 (Homo sapiens (Human), UniProt Q16566); assay: KINOMEscan scanMAX; type: binding; conditions: 2000 nM; read-out: Percent Control
MAP4K3 = MAP4K3 (Homo sapiens (Human), UniProt Q8IVH8); assay: KINOMEscan scanMAX; type: binding; conditions: 2000 nM; read-out: Percent Control
PIK3CA(C420R) = PIK3CA(C420R) (Homo sapiens (Human), UniProt P42336, C420R); assay: KINOMEscan scanMAX; type: binding; conditions: 2000 nM; read-out: Percent Control
MET = MET (Homo sapiens (Human), UniProt P08581); assay: KINOMEscan scanMAX; type: binding; conditions: 2000 nM; read-out: Percent Control
[2] = system: 4T1 murine triple-negative breast cancer; assay: 4T1 breast cancer metastasis survival model; type: in vivo; conditions: 40 mg/kg, oral, b.i.d., female Balb/c mice after primary tumor removal
Method: 4T1 is a murine triple-negative breast cancer (TNBC) cell line, which is highly metastatic to the lungs. 4T1 cells were injected orthotopically in the mammary fat pad of female Balb/c mice and the primary tumors were surgically removed when tumor sizes reach 500-600 mm^3. Mice were then separated into two groups (FIG. 12A, n=8), which were then treated with vehicle (5% dextrose) or Senexin C (40 mg/kg, oral, b.i.d.).

TRKC (NTRK3) = TRKC (NTRK3) (Homo sapiens (Human), UniProt Q16288); assay: KINOMEscan scanMAX; type: binding; conditions: 2000 nM; read-out: Percent Control
HIPK2 = HIPK2 (Homo sapiens (Human), UniProt Q9H2X6); assay: KINOMEscan scanMAX; type: binding; conditions: 2000 nM; read-out: Percent Control
TXK = TXK (Homo sapiens (Human), UniProt P42681); assay: KINOMEscan scanMAX; type: binding; conditions: 2000 nM; read-out: Percent Control
CAMK2D = CAMK2D (Homo sapiens (Human), UniProt Q13557); assay: KINOMEscan scanMAX; type: binding; conditions: 2000 nM; read-out: Percent Control
AURKA = AURKA (Homo sapiens (Human), UniProt O14965); assay: KINOMEscan scanMAX; type: binding; conditions: 2000 nM; read-out: Percent Control
PDPK1 = PDPK1 (Homo sapiens (Human), UniProt O15530); assay: KINOMEscan scanMAX; type: binding; conditions: 2000 nM; read-out: Percent Control

PLK3, sequence (Q9H4B4 whole entry): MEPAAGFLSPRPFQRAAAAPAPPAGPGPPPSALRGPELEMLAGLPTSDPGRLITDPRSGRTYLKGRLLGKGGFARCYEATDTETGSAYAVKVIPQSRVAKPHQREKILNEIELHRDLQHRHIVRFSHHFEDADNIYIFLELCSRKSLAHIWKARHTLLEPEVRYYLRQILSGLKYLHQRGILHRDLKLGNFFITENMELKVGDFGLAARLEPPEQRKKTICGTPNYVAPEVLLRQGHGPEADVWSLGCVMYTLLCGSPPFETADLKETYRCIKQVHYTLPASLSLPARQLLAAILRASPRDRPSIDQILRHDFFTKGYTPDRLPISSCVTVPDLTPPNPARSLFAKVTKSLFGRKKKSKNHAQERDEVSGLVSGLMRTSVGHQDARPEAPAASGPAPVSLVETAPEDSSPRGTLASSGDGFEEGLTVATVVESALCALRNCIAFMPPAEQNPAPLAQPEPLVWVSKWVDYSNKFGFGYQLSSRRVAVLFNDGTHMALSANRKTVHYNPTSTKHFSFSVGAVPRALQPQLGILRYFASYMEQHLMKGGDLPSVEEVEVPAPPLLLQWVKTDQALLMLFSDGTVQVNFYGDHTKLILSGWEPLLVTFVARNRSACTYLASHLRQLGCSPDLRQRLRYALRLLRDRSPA
ALK(C1156Y), sequence (Q9UM73 19-1620 C1156Y): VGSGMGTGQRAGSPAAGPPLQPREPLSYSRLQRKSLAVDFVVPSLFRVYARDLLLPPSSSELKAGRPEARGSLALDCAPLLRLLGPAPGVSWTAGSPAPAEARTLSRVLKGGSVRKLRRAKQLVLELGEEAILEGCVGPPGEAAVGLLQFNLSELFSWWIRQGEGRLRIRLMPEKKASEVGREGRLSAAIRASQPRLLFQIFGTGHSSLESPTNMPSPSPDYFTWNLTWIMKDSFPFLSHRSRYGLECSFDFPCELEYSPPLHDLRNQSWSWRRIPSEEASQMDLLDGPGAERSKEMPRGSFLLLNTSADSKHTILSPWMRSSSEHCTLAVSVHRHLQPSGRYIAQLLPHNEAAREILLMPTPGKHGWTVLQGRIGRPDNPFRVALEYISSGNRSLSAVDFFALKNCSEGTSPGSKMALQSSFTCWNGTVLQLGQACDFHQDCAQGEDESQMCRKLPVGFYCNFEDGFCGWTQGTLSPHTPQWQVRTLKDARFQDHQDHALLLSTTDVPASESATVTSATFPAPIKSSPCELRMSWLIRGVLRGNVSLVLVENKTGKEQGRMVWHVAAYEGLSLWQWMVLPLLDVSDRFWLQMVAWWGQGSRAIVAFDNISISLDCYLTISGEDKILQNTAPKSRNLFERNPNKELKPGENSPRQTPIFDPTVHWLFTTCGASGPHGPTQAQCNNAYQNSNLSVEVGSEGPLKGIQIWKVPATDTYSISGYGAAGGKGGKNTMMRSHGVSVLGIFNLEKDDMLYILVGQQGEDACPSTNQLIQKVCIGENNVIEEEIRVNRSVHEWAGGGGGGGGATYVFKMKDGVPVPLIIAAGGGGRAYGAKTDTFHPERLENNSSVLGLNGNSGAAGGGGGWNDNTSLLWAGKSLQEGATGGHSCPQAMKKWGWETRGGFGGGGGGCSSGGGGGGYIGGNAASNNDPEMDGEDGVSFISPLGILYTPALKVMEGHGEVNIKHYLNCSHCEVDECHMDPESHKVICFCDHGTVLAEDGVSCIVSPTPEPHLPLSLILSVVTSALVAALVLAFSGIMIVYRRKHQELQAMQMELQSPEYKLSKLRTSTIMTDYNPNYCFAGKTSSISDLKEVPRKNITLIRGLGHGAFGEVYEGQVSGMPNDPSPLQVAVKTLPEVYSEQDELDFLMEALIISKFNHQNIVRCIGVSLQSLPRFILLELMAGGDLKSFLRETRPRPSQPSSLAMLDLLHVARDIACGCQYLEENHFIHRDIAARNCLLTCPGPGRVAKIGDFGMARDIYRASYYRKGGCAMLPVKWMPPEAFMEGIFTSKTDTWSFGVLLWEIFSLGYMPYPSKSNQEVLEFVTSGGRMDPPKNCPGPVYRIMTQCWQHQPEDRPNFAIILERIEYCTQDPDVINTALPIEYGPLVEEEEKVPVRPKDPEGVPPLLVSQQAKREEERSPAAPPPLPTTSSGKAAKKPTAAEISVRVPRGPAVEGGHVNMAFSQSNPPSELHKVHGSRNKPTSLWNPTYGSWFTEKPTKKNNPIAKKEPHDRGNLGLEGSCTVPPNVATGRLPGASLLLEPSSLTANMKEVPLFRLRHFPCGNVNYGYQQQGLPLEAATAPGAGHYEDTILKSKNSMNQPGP
WNK1, sequence (Q9H4A3 whole entry): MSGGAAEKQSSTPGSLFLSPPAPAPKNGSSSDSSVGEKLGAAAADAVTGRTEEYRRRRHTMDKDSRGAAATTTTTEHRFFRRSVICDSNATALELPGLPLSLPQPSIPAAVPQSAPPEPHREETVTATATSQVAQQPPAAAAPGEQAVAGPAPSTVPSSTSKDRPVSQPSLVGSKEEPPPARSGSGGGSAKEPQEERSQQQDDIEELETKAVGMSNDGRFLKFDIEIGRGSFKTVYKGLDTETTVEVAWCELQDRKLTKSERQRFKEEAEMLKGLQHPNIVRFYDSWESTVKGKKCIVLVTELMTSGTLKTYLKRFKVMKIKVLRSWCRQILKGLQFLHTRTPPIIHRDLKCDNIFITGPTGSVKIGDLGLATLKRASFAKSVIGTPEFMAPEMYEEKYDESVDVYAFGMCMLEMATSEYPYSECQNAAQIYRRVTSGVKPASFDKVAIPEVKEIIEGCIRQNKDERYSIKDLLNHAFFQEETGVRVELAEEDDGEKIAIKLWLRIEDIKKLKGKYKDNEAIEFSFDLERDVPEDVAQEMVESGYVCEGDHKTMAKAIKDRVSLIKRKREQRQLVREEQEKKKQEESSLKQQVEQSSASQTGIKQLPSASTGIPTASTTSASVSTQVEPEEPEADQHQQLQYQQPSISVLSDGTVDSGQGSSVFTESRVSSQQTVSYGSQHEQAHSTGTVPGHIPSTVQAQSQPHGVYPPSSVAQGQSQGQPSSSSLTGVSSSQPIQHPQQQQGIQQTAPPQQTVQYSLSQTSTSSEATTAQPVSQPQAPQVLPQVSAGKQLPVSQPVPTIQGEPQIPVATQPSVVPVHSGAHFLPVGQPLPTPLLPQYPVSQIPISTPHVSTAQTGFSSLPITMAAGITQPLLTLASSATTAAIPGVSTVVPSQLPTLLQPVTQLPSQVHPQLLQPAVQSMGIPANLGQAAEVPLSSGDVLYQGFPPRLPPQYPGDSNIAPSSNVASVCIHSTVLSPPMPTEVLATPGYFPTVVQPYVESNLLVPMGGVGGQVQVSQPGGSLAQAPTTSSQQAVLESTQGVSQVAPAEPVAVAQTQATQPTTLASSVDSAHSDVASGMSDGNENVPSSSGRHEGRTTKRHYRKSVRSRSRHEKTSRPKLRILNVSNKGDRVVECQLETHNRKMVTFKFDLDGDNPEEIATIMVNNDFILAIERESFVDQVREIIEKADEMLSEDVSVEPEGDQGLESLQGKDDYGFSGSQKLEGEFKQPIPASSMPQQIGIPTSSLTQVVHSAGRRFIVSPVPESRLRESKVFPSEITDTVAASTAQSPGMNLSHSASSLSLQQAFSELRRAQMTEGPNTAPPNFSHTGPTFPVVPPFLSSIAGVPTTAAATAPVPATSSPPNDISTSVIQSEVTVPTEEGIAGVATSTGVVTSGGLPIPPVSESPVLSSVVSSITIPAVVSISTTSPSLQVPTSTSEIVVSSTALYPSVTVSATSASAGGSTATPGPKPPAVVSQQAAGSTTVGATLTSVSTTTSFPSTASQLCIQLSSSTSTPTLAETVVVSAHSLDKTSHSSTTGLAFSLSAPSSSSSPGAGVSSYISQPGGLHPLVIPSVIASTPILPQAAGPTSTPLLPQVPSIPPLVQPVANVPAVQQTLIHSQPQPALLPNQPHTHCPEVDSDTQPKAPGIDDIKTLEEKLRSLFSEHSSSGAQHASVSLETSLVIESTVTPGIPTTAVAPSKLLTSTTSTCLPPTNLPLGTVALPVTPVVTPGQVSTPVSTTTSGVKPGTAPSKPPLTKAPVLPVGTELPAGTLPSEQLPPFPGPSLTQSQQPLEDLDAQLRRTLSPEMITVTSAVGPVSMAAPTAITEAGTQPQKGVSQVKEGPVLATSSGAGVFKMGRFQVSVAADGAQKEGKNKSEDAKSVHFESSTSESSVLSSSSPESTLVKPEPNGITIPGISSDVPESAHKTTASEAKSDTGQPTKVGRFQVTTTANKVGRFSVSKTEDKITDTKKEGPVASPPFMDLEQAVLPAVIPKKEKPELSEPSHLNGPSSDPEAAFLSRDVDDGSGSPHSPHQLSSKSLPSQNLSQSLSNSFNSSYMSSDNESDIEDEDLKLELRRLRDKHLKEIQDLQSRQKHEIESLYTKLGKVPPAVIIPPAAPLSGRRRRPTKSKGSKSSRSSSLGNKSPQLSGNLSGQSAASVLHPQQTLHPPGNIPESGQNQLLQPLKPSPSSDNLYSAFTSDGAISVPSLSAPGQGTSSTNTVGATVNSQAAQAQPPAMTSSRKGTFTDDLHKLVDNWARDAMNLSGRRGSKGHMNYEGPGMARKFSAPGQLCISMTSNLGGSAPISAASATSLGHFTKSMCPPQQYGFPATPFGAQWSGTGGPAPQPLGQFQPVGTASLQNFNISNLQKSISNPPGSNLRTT
BLK, sequence (P51451 whole entry): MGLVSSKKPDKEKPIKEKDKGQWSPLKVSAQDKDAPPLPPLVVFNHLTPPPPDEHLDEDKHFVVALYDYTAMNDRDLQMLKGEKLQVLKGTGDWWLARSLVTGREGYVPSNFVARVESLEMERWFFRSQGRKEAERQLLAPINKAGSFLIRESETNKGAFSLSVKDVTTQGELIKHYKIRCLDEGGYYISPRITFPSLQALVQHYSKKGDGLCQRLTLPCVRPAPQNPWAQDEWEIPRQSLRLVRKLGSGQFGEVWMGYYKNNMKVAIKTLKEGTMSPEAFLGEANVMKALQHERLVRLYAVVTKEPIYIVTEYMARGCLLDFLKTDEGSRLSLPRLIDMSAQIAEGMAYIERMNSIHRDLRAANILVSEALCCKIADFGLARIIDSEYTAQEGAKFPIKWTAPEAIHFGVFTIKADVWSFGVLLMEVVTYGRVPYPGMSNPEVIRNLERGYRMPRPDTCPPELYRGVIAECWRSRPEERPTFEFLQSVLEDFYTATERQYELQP

SMILES: CN1CCN(C(=O)c2ccc3cc(CCNc4ccnc5ccc(C#N)cc45)ccc3c2)CC1 [compound 6148, 4-((2-(6-(4-methylpiperazine-1-carbonyl)naphthalen-2-yl)ethyl)amino)quinoline-6-carbonitrile]
- remaining binding at 2 µM (ANKK1): 69%
- remaining binding at 2 µM (NLK): 90%
- remaining binding at 2 µM (LTK): 93%
- remaining binding at 2 µM (PIK3CB): 64%
- remaining binding at 2 µM [1]: 94%
- remaining binding at 2 µM (TEC): 100%
- remaining binding at 2 µM (GSK3B): 67%
- remaining binding at 2 µM (TLK2): 88%
- remaining binding at 2 µM (AURKB): 75%
- remaining binding at 2 µM (KIT(D816V)): 100%
- remaining binding at 2 µM (TYRO3): 77%
- remaining binding at 2 µM (WNK1): 72%
- remaining binding at 2 µM (PRKCE): 98%
- remaining binding at 2 µM (MEK1 (MAP2K1)): 59%
- remaining binding at 2 µM (PLK3): 80%
- remaining binding at 2 µM (ALK(C1156Y)): 83%
- remaining binding at 2 µM (EGFR(L858R, T790M)): 82%
- remaining binding at 2 µM (FLT3(K663Q)): 87%
- remaining binding at 2 µM (PIK3CA(I800L)): 72%
- remaining binding at 2 µM (FLT3(D835V)): 67%
- remaining binding at 2 µM (ACVR2B): 90%
- remaining binding at 2 µM (PIK3CA(E542K)): 55%
- remaining binding at 2 µM (MAST1): 96%
- remaining binding at 2 µM (GRK4): 100%
- remaining binding at 2 µM (TNK2): 94%
- remaining binding at 2 µM (BLK): 100%
- remaining binding at 2 µM (CAMK4): 95%
- remaining binding at 2 µM (MAP4K3): 100%
- remaining binding at 2 µM (PIK3CA(C420R)): 73%
- remaining binding at 2 µM (MET): 90%
- Mouse survival of the metastatic disease [2]: significantly increased
- remaining binding at 2 µM (TRKC (NTRK3)): 69%
- remaining binding at 2 µM (HIPK2): 67%
- remaining binding at 2 µM (TXK): 94%
- remaining binding at 2 µM (CAMK2D): 94%
- remaining binding at 2 µM (AURKA): 88%
- remaining binding at 2 µM (PDPK1): 86%

Reference: patent US12281080B2, “Quinoline-based compounds and methods of inhibiting CDK8/19” (University of South Carolina, priority 2018, dated 2025)
